Our source for the EC50 values is patent US20230271949A1, “GLP-1R MODULATING COMPOUNDS” (ASCLETIS BIOSCIENCE CO., LTD., priority 2022, published 2023).

The term EC50 denotes the midpoint of the concentration-response curve. A higher EC50 goes with a less potent agent.

In the test the target is GLP-1R (Homo sapiens, UniProt P43220). The test can be described thus: GLP-1R agonist cAMP stimulation assay (HTRF cAMP). It is filed as cell-based. The settings on record: HEK293 cell line expressing GLP-1 target; HTRF cAMP agonist mode, 30 min at RT. As for the experimental part: cAMP Detection Kit, Cisbio (Cat #62AM4PEJ)
Chain of GLP-1R (P43220 24-463): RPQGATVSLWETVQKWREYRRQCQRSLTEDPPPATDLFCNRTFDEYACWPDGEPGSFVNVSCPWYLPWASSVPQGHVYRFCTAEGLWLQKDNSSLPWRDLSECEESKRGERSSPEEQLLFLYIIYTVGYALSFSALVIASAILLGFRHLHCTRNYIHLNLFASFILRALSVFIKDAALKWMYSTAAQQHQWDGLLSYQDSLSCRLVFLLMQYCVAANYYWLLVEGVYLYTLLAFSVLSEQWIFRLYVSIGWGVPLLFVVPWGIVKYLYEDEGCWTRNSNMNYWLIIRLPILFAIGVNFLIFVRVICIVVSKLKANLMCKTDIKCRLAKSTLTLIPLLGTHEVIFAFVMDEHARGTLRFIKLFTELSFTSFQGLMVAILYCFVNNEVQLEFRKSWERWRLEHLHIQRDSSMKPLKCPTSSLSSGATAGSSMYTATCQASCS
The cell line was constructed by WuXi.
2. Methods • a) The compound source plate preparation: • The reference 7-37 was diluted from 500 nM, 4-fold, 10 points in DMSO using Bravo. The compounds were diluted from […], 3-fold, 10 points in DMSO using Bravo. • b) Transfer of compounds: • 1) Use Echo transfer 100 nL cpd to the OptiPlate-384 plate. • 2) Spin the plates at 1000 rpm for 5 sec. • c) Cell suspension preparation: • 1) Thaw 1 vial of GLP-1 cells rapidly in 37° C. water bath. • 2) Transfer cell suspension into 10 ml of HBSS in a 15 ml conical tube. • 3) Centrifuge cells at 1000 rpm for 5 min at room temperature to pellet cells • 4) Gently aspirate supernatant being careful not to aspirate cells. • 5) Flick pellet to loose cells and re-suspend the cell pellet in 10 ml HBSS. Use a sterile pipette to pipette up and down to dislodge clumps. • 6) Count cells for concentration and to determine cell viability on Vi-cell. • 7) Re-suspend the GLP-1 cells in assay buffer at a concentration of 1.0×E5/mL cells. • 8) Transfer 10 μL GLP-1 cells to OptiPlate-384 plate. • d) HTRF cAMP Assay for agonist: • 1) Incubate the plate at RT for 30 min before adding the detection reagent. • 2) Add 10 μL each of detection reagent using Electric Multiple Channel Pipette. • 3) Cover the 384 plate with TopSeal-A film and incubate for 60 minutes at room temperature. • Remove the TopSeal-A, read on EnVision.
Create a new log (Inhibitor) vs response—Variable slope mode in Prism5.0 software, substitute the standard curve concentration (x) and its corresponding 665/615 data (y) into the model, convert the standard curve concentration (abscissa) by x=log(x), and make the standard curve through the converted xy.
Transform the data of 665/615 in the whole plate into a column of data, substitute it into y in the table of standard curve concentration (x) and 665/615 data (y), copy the x (interpolatedx) corresponding to automatic conversion by the software into a table, convert it into cAMP level by the formula x=10^(x), and reset the data into 384 distribution.
% Activity=(cAMP level−LC)/(HC−LC)*100% • Z factor: 1-3*(STD_HC+[…])/(HC-LC) • Assay Window: HC/LC • LC: The average cAMP level of adding DMSO wells • HC: The average cAMP level of adding the top concentration of reference compounds wells.
Create a new […] in Prism5.0 software, substitute the sample concentration (x) and its corresponding % Activity data (y) into the model, convert the standard curve concentration (abscissa) to x=log(x), and make the sample curve through the converted xy.
For orientation: Time-resolved FRET reads energy transfer from a long-lived donor to a nearby acceptor.

In the case of `Cc1n[nH]c2c(C)cc(C(=O)Nc3ccc4c(c3)nc(CN3CC=C(c5cccc6c5OC(C)(c5ccc(Cl)cc5F)O6)CC3)n4CC3CCO3)cc12` (centres unmarked) [Compound 305], a half-maximal response (EC50) required 0.19 nM. Under `Cc1cc(C(=O)Nc2ccc3nc(CN4CC=C(c5cccc(OCc6ccc(Cl)cc6F)n5)CC4)n(C[C@@H]4CCO4)c3c2)cc2c1NC(=O)C21CC1` [Compound 282] stands 4.32 nM. Under `Cc1n[nH]c2ccc(C(=O)Nc3ccc4c(c3)nc(CN3CC=C(c5cccc(OCc6ccc(Cl)cn6)n5)CC3)n4C[C@@H]3CCO3)cc12` [Compound 198] stands 0.35 nM; under `COc1n[nH]c2ccc(C(=O)Nc3ccc4c(c3)nc(CN3CC=C(c5cccc(OCc6ccc(Cl)cc6F)n5)CC3)n4C[C@@H]3CCO3)cc12` [Compound 201], 1.99 nM. In the case of `O=C(Nc1cc2[nH]ccc2s1)c1ccc2c(c1)nc(CN1CC=C(c3cccc(OCc4ccc(Cl)cc4F)n3)CC1)n2C[C@@H]1CCO1` [Compound 402] it was 73.2 nM; in that of `Cc1n[nH]c2c(C(F)(F)F)cc(C(=O)Nc3ccc4c(c3)nc(CN3CC=C(c5cccc(OCc6ccc(Cl)cn6)n5)CC3)n4C[C@@H]3CCO3)cc12` [Compound 213], 0.78 nM. In the case of `Cc1n[nH]c2c(Cl)cc(NC(=O)c3ccc4c(c3)nc(CN3CCC(c5cccc(OCc6ccc(Cl)cc6F)n5)CC3)n4C[C@@H]3CCO3)cc12` [Compound 110], the EC50 is 4.45 nM. Under `Cc1n[nH]c2ccc(C(=O)Nc3ccc4nc(CN5CC=C(c6cccc(OCc7ccc(C#N)cc7F)n6)CC5)n(CC5CCO5)c4c3)cc12` (centres unmarked) [Compound 290] stands 1.2 nM; under `Cc1n[nH]c2c(C(F)(F)F)cc(C(=O)Nc3ccc4c(c3)nc(CN3CC=C(c5cccc6c5OC(C)(c5ccc(Cl)cc5F)O6)CC3)n4C[C@@H]3CCO3)cc12` (some centres unmarked) [Compound 313], 1.39 nM; under `COc1n[nH]c2ccc(NC(=O)c3ccc4c(c3)nc(CN3CCC(c5cccc(OCc6ccc(Cl)cc6F)n5)CC3)n4C[C@@H]3CCO3)cc12` [Compound 81], 14.5 nM. Under `Cc1cc(C(=O)Nc2ccc3c(c2)nc(CN2CCC(c4cccc5c4OC(C)(c4ccc(Cl)cc4F)O5)CC2)n3C[C@@H]2CCO2)cc2[nH]c(=O)[nH]c12` (some centres unmarked) [Compound 345] stands 0.21 nM; under `Cc1cc2c(Cl)ccc(COc3cccc(C4=CCN(Cc5nc6cc(C(=O)Nc7cc(C)c8[nH]nc(C(F)F)c8c7)ccc6n5C[C@@H]5CCO5)CC4)n3)c2o1` [Compound 349], 1.61 nM.

`Cc1n[nH]c2ncc(C(=O)Nc3ccc4c(c3)nc(CN3CC=C(c5cccc(OCc6ccc(Cl)cc6F)n5)CC3)n4C[C@@H]3CCO3)nc12` [Compound 238] returned an EC50 of 11.9 nM.

Molecule `Cc1n[nH]c2ccc(NC(=O)c3ccc4c(c3)nc(CN3CC=C(c5cccc6c5O[C@](C)(c5ccc(Cl)cc5F)O6)CC3)n4C[C@@H]3CCO3)cc12` [Compound 6] registered an EC50 of 1.21 nM.

In turn, `O=C(CNC(=O)c1ccc2c(c1)nc(CN1CCC(c3cccc(OCc4ccc(Cl)cc4F)n3)CC1)n2C[C@@H]1CCO1)N[C@@H](CO)C(=O)O` [Compound 49] yielded a concentration giving a half-maximal response (EC50) of 2.47 nM. Under `Cc1cc(NC(=O)c2ccc3c(c2)nc(CN2CC=C(c4cccc(OCc5cc(F)c(C#N)s5)n4)CC2)n3C[C@@H]2CCO2)cc2c(C(F)(F)F)n[nH]c12` [Compound 365] stands 1.32 nM; under `COCCn1c(Cc2ccc(-c3cccc(OCc4ccc(C#N)cc4F)n3)cc2)nc2cc(NC(=O)CCc3ccccc3O)ccc21` [Compound 13], 189 nM. Under `Cc1cc(NC(=O)c2ccc3c(n2)nc(CN2CC=C(c4cccc(OCc5ccc(Cl)cc5F)n4)CC2)n3C[C@@H]2CCO2)cc2cn[nH]c12` [Compound 137] stands 5.49 nM. In the case of `Cc1n[nH]c2c(C(F)(F)F)cc(NC(=O)c3ccc4c(c3)nc(CN3CC=C(c5cccc6c5O[C@](C)(c5ccc(Cl)cc5F)O6)CC3)n4CC3CCO3)cc12` (some centres unmarked) [Compound 389], a half-maximal effect (EC50) was put at 2.81 nM. Under `Cc1n[nH]c2ccc(C(=O)Nc3ccc4nc(CN5CC=C(c6cccc(OCc7ccc(Cl)cc7F)n6)CC5)n(CC5CCO5)c4c3)cc12` (centres unmarked) [Compound 278] stands 3.18 nM. Under `O=C(Nc1ccc2c(c1)nc(CN1CC=C(c3cccc(OCc4ccc(Cl)cc4F)n3)CC1)n2C[C@@H]1CCO1)c1ccc2[nH]nc(F)c2c1` [Compound 202] stands 2.21 nM. Under `Cc1cc(NC(=O)c2ccc3nc(CN4CC=C(c5cccc(OCc6ccc(Cl)cc6F)n5)CC4)n(CC4CCO4)c3c2)cc2c(F)n[nH]c12` (centres unmarked) [Compound 265] stands 45.9 nM; under `Cc1n[nH]c2c(F)cc(C(=O)Nc3ccc4c(c3)nc(CN3CC=C(c5cccc(OCc6cc(F)c(C#N)s6)n5)CC3)n4C[C@@H]3CCO3)cc12` [Compound 362], 0.85 nM; under `Cc1cc(C(=O)Nc2ccc3c(c2)nc(CN2CC=C(c4cccc(OCc5ccc(Cl)cc5F)n4)CC2)n3C[C@@H]2CCO2)cc2cn[nH]c12` [Compound 199], 0.47 nM. Turning to `COCCn1c(CN2CCC(c3cccc(OCc4ccc(Cl)cc4F)n3)CC2)nc2cc(C(=O)NCCc3ccccc3O)ccc21` [Compound 18], the EC50 was 411 nM. Under `Cc1cc(NC(=O)c2ccc3nc(CN4CC=C(c5cccc(OCc6ccc(Cl)cc6F)n5)CC4)n(C[C@@H]4CCO4)c3c2)cc2c1NC(=O)C21CC1` [Compound 267] stands 1.99 nM; under `O=C(NCc1ccc2[nH][nH]c(=O)c2c1)c1ccc2c(c1)nc(CN1CCC(c3cccc(OCc4ccc(Cl)cc4F)n3)CC1)n2C[C@@H]1CCO1` [Compound 76], 9.04 nM. In the case of `Cc1cc2c(C#N)ccc(COc3cccc(C4=CCN(Cc5nc6cc(C(=O)Nc7cc(F)c8[nH]nc(C)c8c7)ccc6n5C[C@@H]5CCO5)CC4)n3)c2s1` [Compound 350] it was 0.51 nM. In the case of `Cc1n[nH]c2ccc(NC(=O)c3ccc4c(c3)nc(CN3CC=C(c5cccc(OCc6c(F)cnc7ccccc67)n5)CC3)n4C[C@@H]3CCO3)cc12` [Compound 368] it was 9.19 nM; in that of `CCc1n[nH]c2ccc(C(=O)Nc3ccc4c(c3)nc(CN3CC=C(c5cccc(OCc6ccc(C#N)cc6F)n5)CC3)n4C[C@@H]3CCO3)cc12` [Compound 231], 0.87 nM; in that of `Cc1n[nH]c2c(C(F)(F)F)cc(C(=O)Nc3ccc4c(c3)nc(C3CC35CCN(c3cccc(OCc6ccc(Cl)cc6F)n3)CC5)n4C[C@@H]3CCO3)cc12` (some centres unmarked) [Compound 253], 2.01 nM. `Cc1n[nH]c2c(Cl)cc(C(=O)Nc3ccc4c(c3)nc(CN3CC=C(c5cccc(OCc6ccc(Cl)cc6F)n5)CC3)n4C[C@@H]3CCO3)cc12` [Compound 214] gave an EC50 of 1.21 nM. Under `O=C(Nc1ccc2nc(CN3CC=C(c4cccc(OCc5ccc(Cl)cc5F)n4)CC3)n(C[C@@H]3CCO3)c2c1)c1ccc2c(c1)C1(CC1)C(=O)N2` [Compound 281] stands 1.21 nM. In the case of `Cc1n[nH]c2c(C(F)(F)F)cc(NC(=O)c3ccc4c(c3)nc(CN3CC=C(c5cccc6c5O[C@@](C)(c5ccc(Cl)cc5F)O6)CC3)n4CC3CCO3)cc12` (some centres unmarked) [Compound 388] it was 0.82 nM; in that of `Cc1n[nH]c2c(F)cc(NC(=O)c3ccc4nc(CN5CC=C(c6cccc(OCc7ccc(Cl)cc7F)n6)CC5)n(CC5CCO5)c4c3)cc12` (centres unmarked) [Compound 262], 3.12 nM. The molecule `O=C(NCC(=O)N1CC[C@H](C(=O)O)C1)c1ccc2c(c1)nc(CN1CCC(c3cccc(OCc4ccc(Cl)cc4F)n3)CC1)n2C[C@@H]1CCO1` [Compound 54] came in with an EC50 of 79.7 nM.

Regarding `Cc1cc(C(=O)Nc2ccc3c(c2)nc(Cc2c(F)cc(-c4cccc5c4OC(C)(c4ccc(Cl)cc4F)O5)cc2F)n3C[C@@H]2CCO2)cc2[nH]c(=O)[nH]c12` (some centres unmarked) [Compound 321], the EC50 was found to be 0.94 nM. In the case of `Cc1n[nH]c2c(C)cc(C(=O)Nc3ccc4nc(CN5CC=C(c6cccc(OCc7ccc(C#N)cc7F)n6)CC5)n(CC5CCO5)c4c3)cc12` (centres unmarked) [Compound 291] it was 0.75 nM. Under `N#Cc1ccc(COc2cccc(C3CCN(Cc4nc5cc(C(=O)NCC(=O)N6C[C@@H](F)C[C@H]6C(=O)O)ccc5n4C[C@@H]4CCO4)CC3)n2)c(F)c1` [Compound 44] stands 4.36 nM. In the case of `Cc1n[nH]c2ccc(C(=O)Nc3ccc4c(c3)nc(Cc3ccc(-c5cccc6c5OC(C)(c5ccc(Cl)cc5F)O6)s3)n4C[C@@H]3CCO3)cc12` (some centres unmarked) [Compound 322] it was 31.9 nM; in that of `O=C(Nc1ccc2[nH]nc(C(F)(F)F)c2c1)c1ccc2c(c1)nc(CN1CCC(c3cccc(OCc4ccc(Cl)cc4F)n3)CC1)n2C[C@@H]1CCO1` [Compound 111], 2.34 nM.
